Measurements as given in PubChem BioAssay (NCI).
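Compound exposure: 48 hours, 5 concentrations, 96-well plates. TGI marks complete inhibition of growth.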

Assays:
Experiment in all cases: NCI-60 cell line screen, 48 h
[1] = tested on: OVCAR-4 ovarian
[2] = tested on: T-47D breast
[3] = tested on: TK-10 renal
[4] = tested on: LOX IMVI melanoma
[5] = tested on: SK-MEL-5 melanoma
[6] = tested on: SN12C renal
[7] = tested on: HOP-92 NSCLC
[8] = tested on: HCT-116 colon
[9] = tested on: HT29 colon
[10] = tested on: MOLT-4 leukemia
[11] = tested on: PC-3 prostate
[12] = tested on: 786-0 renal
[13] = tested on: SNB-19 CNS
[14] = tested on: MCF7 breast
[15] = tested on: COLO 205 colon
[16] = tested on: HOP-62 NSCLC
[17] = tested on: NCI-H460 lung
[18] = tested on: CCRF-CEM leukemia
[19] = tested on: SF-295 CNS
[20] = tested on: MDA-MB-435
[21] = tested on: NCI/ADR-RES ovarian
[22] = tested on: SW-620 colon
[23] = tested on: HS 578T breast
[24] = tested on: SNB-75 CNS
[25] = tested on: MDA-N
[26] = tested on: K-562 leukemia
[27] = tested on: RXF 393 renal
[28] = tested on: UACC-62 melanoma
[29] = tested on: MALME-3M melanoma
[30] = tested on: RPMI-8226 leukemia
[31] = tested on: UO-31 renal
[32] = tested on: NCI-H226 lung
[33] = tested on: UACC-257 melanoma
[34] = tested on: SF-268 CNS
[35] = tested on: MDA-MB-231 breast
[36] = tested on: HCT-15 colon
[37] = tested on: BT-549 breast
[38] = tested on: NCI-H522 lung
[39] = tested on: HL-60(TB) leukemia
[40] = tested on: HCC-2998 colon
[41] = tested on: U251 CNS
[42] = tested on: M14 melanoma
[43] = tested on: EKVX NSCLC
[44] = tested on: CAKI-1 renal
[45] = tested on: SR leukemia
[46] = tested on: SK-OV-3 ovarian
[47] = tested on: IGROV1 ovarian
[48] = tested on: SK-MEL-2 melanoma
[49] = tested on: SK-MEL-28 melanoma
[50] = tested on: KM12 colon
[51] = tested on: A549 NSCLC
[52] = tested on: NCI-H23 lung
[53] = tested on: OVCAR-3 ovarian
[54] = tested on: SF-539 CNS
[55] = tested on: DU-145 prostate
[56] = tested on: OVCAR-8 ovarian
[57] = tested on: ACHN renal
[58] = tested on: OVCAR-5 ovarian

Measured: TGI

CC(=O)OCC1CCC(=C2C(=O)OC(C)(C)OC2=O)N1 (configuration not stated)
not listed: [57] | [58]
> 100 µM: all other assays above

CC12CCC(C(=O)n3c1nc1ccccc13)C(C)(C)O2 (configuration not stated)
not listed: [17]
> 100 µM: all other assays above

COC(=O)CNC(=O)c1cc(C)cc2c1Oc1c(cc(C)cc1C(=O)NCC(=O)OC)S2
69.4 µM: [27]
43.7 µM: [54]
57.2 µM: [7]
70.9 µM: [15]
40.7 µM: [29]
58.4 µM: [57]
not listed: [5] | [17] | [31] | [39]
> 100 µM: all other assays above
